Consider 1 compound from patent publication US12428405B2, “Chalcone-based chemotherapeutic compound for triple negative breast cancer” (QATAR UNIVERSITY, priority 2019, dated 2025).

Values joined by “and” are separate entries in the source; they are usually repeats but may differ in a detail not shown here. Equal entries are not always repeated. “Also recorded” adds a separate entry of the source.

The subject of series [1] is MDA-MB-231 xenografted nude mice. The series can be described thus: In vivo tumor growth, xenograft model.
The subject of series [2] is BAX/bcl2 expression in MDA-MB-231 cell line. The series can be described thus: Western blot of BAX/bcl-2 expression. It is filed as cell-based. The settings on record: 48 h, 5 and 10 μM; vs DMSO and colchicine. On the procedure: (§1) Proteins were quantified with the Pierce BCA Protein Assay Kit (Thermo Scientific, USA) following cell lysis. SDS-PAGE was prepared at a concentration of 10% for all studied proteins. All samples were loaded at 40 μg per 1.5 mm 15 wells comb. Running of stained samples was performed using two steps gel electrophoresis (60 Volts for 20 minutes followed by 120 Volts for 1 hour). Afterwards, gels were transferred into PVDF membrane at 100 Voltage for 1.5-2.0 hours using wet transfer. Following transfer, PVDF membranes were blocked with 5% skimmed milk and washed three times. Primary antibodies (Table 2.2) were prepared, then PVDF membrane were incubated with them overnight with gentle shaking at 4° C. Afterwards, membranes were washed three times and incubated with their respective secondary antibodies for 1-2 hours with gentle shaking at room temperature. Pierce™ ECL Western Blotting Substrate was used to detect proteins by chemiluminescence. Blots were imaged using the ibrightCL1000 imaging system.
A general note: A western blot detects proteins with antibodies after separation by electrophoresis.

Series [3] deals with BAX/bcl2 expression in MCF-7 cell line. The series can be described thus: Western blot of BAX/bcl-2 expression. The format is cell-based. The settings on record: 48 h, 5 and 10 μM; vs DMSO and colchicine. The protocol: as §1
Series [4] can be described thus: Two-week safety and tolerability of the dose before inoculation. The settings on record: 10 mg/kg intraperitoneally for two weeks; n=5.
For series [5], the system named is SK-BR-3. The series can be described thus: Radius cell migration assay. It is filed as cell-based. The settings on record: Homo sapiens, 24 hours of treatment, 5 concentrations, three independent experiments, read-out: Migratory IC50 SK-BR-3. The protocol: (§2) For MCF-7 and SK-BR-3 cell lines, migration testing was performed using the Radius™ Cell Migration Assay Kit (Cell Biolabs, Inc., USA) and migration was quantified based on the change in wound area.

In series [6] the test system is MCF-7. The experiment in a line: Radius cell migration assay. The settings on record: Homo sapiens, MCF7; 24 hours of treatment; 5 concentrations; three independent experiments; read-out: Migratory IC50 MCF-7. The format is cell-based. The protocol: as §2
[7] abbreviates: 10 mg/kg i.p., three times per week, 45 days.

The IC50 is the concentration at which inhibition is half-maximal. Turning to `COc1cccc(C(=O)/C=C/c2ccc(N(CCCl)CCCl)cc2)c1` [Compound 14, (E)-3-(4-(Bis(2-chloroethyl)amino)phenyl)-1-(3-methoxyphenyl) prop-2-en-1-one], the “day on which the tumor in the treated group started to grow” value in series [1] (10 mg/kg i.p., three times per week) was 24 days. In addition, in series [1] (setting [7]), the “clinical toxicity to treated animals (in words)” value is given as “no notable clinical toxicity”; the “mice health and weight (in words)” value is given as “did not affect the mice health nor it had induced any changes to the mice weight”. Also, the “inhibition in tumor growth as compared to the placebo” value in series [1] (10 mg/kg i.p., three times per week, day 45, n=5) is 46.41±0.71% and 46.41%. Besides, in series [1] (during the 45 days), the “survival rate of the mice” value was 100%. In series [1] (treated mice, day 45, n=5), this compound registered a tumor volume of 1350±1350 mm^3 and a tumor weight of 0.88±0.71 gm. The “BAX / bcl-2 protein expression, BAX/bcl-2 ratio” value in series [2] was “upregulation of BAX and downregulation of bcl-2; also recorded: positive increase in BAX/bcl-2 ratio”. In addition, in series [3], the “BAX / bcl-2 protein expression, BAX/bcl-2 ratio” value was “upregulation of BAX and downregulation of bcl-2; also recorded: positive increase in BAX/bcl-2 ratio”. The “clinical observations, tolerability (in words)” value in series [4] was “did not show any changes in the mice food intake, weights, or shape”. The IC50 in series [5] is 2790 ± 450 nM. Moreover, the IC50 in series [6] was found to be 2440 ± 390 nM.
